The record followed here is patent publication US5349127A, “Expression of herbicide metabolizing cytochromes P450” (priority 1992, dated 1994).

The subject of series [1] is S. lividans pCAO200SU1-FeS-B#9. Put plainly: Sulfonylurea metabolism by washed cell suspension (Examples 6-9). In kind it is in vitro ADME, Streptomyces lividans. As for the experimental part: Herbicides and their metabolites are measured by HPLC as described by Romesser et al., BBRC 140: 650-659 (1986), herein incorporated by reference, except that 0.1% H3 PO4 is used in both solvents. Chromatographic identity and quantitation of the herbicides and their resulting metabolites is determined by comparing them chromatographically with authentic standard compounds. Identity of the resulting metabolites is also confirmed by UV spectroscopy.
A 100 ml culture of S. griseolus ATCC 11796 in sporulation broth and a 50 ml culture of S. lividans transformed with pCAO400 in YEME broth were prepared and incubated for 24 hours as described. At that time, the S. griseolus culture was split into two 50 ml aliquots into two separate flasks and 25 ml of fresh sporulation broth was added to each and 9 mg of […] was added to one of these cultures to induce cytochrome P450SU1 expression. Fresh YEME broth (25 ml) was added to the S. lividans culture. After an additional 6 hours growth at 30° C., the cells in each culture were harvested as described above, washed twice with MOPS (50 mM, pH 7.2) and recentrifuged. The cell pellets were resuspended in four cell volumes of MOPS (50 mM, pH 7.2) containing 0.2% glucose and about 100 μg/ml of 10004. These cell suspensions were incubated at 30° C. with shaking and aliqouts were taken at 2 and 5.5 hours. The supernatant of each aliquot was analyzed by HPLC and the concentrations of the sulfonylurea compound 10004 and its metabolite 10005 were determined.
S. lividans transformed respectively with pCAO200SU1-FeS-B#9, pCAO200SU#112and pCAO200 were cultured for 36 hours in 400 ml of YEME broth at 30° C. S. griseolus ATCC 11796 was similarly cultured in 400 ml of sporulation broth. Six hours before harvesting the cells, 150 ml of fresh YEME broth was added to the S. lividans cells, and the S. griseolus cells were split into two 200 ml cultures with 100 ml of fresh sporulation broth added to each. 10001 (36 mg) was added to one of the two S. griseolus cultures to induce cytochrome P450SU1. […]

The subject of series [2] is S. lividans pCAO200SU1#12. The series is described as above. In kind it is in vitro ADME, Streptomyces lividans. As for the experimental part: (§1) Herbicides and their metabolites are measured by HPLC as described by Romesser et al., BBRC 140: 650-659 (1986), herein incorporated by reference, except that 0.1% H3 PO4 is used in both solvents. Chromatographic identity and quantitation of the herbicides and their resulting metabolites is determined by comparing them chromatographically with authentic standard compounds. Identity of the resulting metabolites is also confirmed by UV spectroscopy. […]
(§2) S. lividans transformed respectively with pCAO200SU1-FeS-B#9, pCAO200SU#112and pCAO200 were cultured for 36 hours in 400 ml of YEME broth at 30° C. S. griseolus ATCC 11796 was similarly cultured in 400 ml of sporulation broth. Six hours before harvesting the cells, 150 ml of fresh YEME broth was added to the S. lividans cells, and the S. griseolus cells were split into two 200 ml cultures with 100 ml of fresh sporulation broth added to each. 10001 (36 mg) was added to one of the two S. griseolus cultures to induce cytochrome P450SU1. The cells were prepared as described above in Example 5 and the concentrations of the sulfonylurea compound 10006 and its metabolites 10007, 10008 or 10009 were determined.

The subject of series [3] is S. lividans pCAO200. The description is as above. To be noted: substrate 10006. In kind it is in vitro ADME, Streptomyces lividans. On the procedure:
as §1, §2

Series [4] concerns S. lividans pCAO200. The series is described as above. The settings on record: substrate 10010. In kind it is in vitro ADME, Streptomyces lividans.
In series [5] the test system is S. lividans pCAO200SU2-FeS-A#11. Put plainly: Sulfonylurea metabolism by washed cell suspension (Examples 11-12). In kind it is in vitro ADME, Streptomyces lividans. The settings on record: substrate 10010.
Series [6] deals with S. lividans pCAO200SU1-FeS-B#9. Kind of series: Percent conversion of herbicides by cultures (Example 16). In kind it is in vitro ADME, Streptomyces lividans. To be noted: 3.0 mg herbicide in 25 ml broth; 24 hours. As for the experimental part:
(§3) Separate cultures (50 ml) inoculated with S. lividans C37, S. lividans transformed with pCAO200SU1-FeS-B#9, S. griseolus ATCC11796, S. griseolus PH2003 transformed with pIJ425, or S. ariseolus PH2003 transformed with pCS325 were cultured in sporulation broth for 18 hours at 30° C. with shaking. Each culture was then resuspended in 25 ml fresh sporulation broth and 3.0 mg herbicide added. In the case of cultures of S. griseolus ATCC11796, a second culture containing herbicide and 3.0 mg 10001 was also prepared. Each culture was reincubated for 24 hours, then an aliquot of the medium was withdrawn and analyzed by HPLC. The percent conversion of herbicide was determined.

The test system of series [7] is S. griseolus PH2003 pCS325. The series is described as above. To be noted: for Percent Conversion: 3.0 mg herbicide in 25 ml broth, 24 hours; for metabolism by bacteria containing constitutively expressed P450SU2: summary of Table 13. It is filed as in vitro ADME, Streptomyces griseolus. As for the experimental part:
as §3

The subject of series [8] is S. griseolus PH2003 pIJ425. The description is as above. It is filed as in vitro ADME, Streptomyces griseolus. To be noted: 3.0 mg herbicide in 25 ml broth; 24 hours. As for the experimental part:
as §3

For a further series, the system named is S. griseolus ATCC11796. Kind of series: Metabolism of 10015 analogs to 10014 (Example 17). In kind it is in vitro ADME, Streptomyces griseolus. On the procedure:
Cultures of S. griseolus ATCC11796 were cultivated in sporulation-broth (50ml) at 30° C. with shaking for 17 hours. Each culture was then resuspended in 25 ml fresh sporulation broth, 3.0 mg sulfonylurea was added, and the culture reincubated for 4 days. Aliquots of the medium were then analyzed by HPLC. Formation of 10014 was measured based on similarity of retention time and UV spectrum of the test metabolite to that formed by metabolism of 10015.

Series [9] relates to S. lividans pCAO200SU1-FeS-B#9. Kind of series: Percent conversion of non-sulfonylurea herbicides (Example 29). In kind it is in vitro ADME, Streptomyces lividans. To be noted: for Percent Conversion: 3.0 mg herbicide in 25 ml broth, 18 hours; for metabolism by bacteria containing constitutively expressed P450SU1: summary of Table 29. On the procedure: This experiment was performed as in Example 17 with the following changes. Separate cultures (50 ml) inoculated with S. lividans C37, S. lividans transformed with pCAO200SU1-FeS-B#9, or S. griseolus ATCC11796 were cultured in sporulation broth for 18 hours at 30° C. with shaking. Each culture was then resuspended in 25 ml fresh sporulation broth and 3.0 mg herbicide added. Each culture was reincubated for 18 hours, then an aliquot of the medium was withdrawn and analyzed by HPLC. The percent conversion of herbicide was determined.

`COC(=O)c1ccccc1S(=O)(=O)NC(=O)Nc1nc(C)nc(O)n1` [compound 10007, N-[(4-hydroxy-6-methyl-1,3,5-triazinyl)aminocarbonyl]-2-methoxycarbonylbenzenesulfonamide]: the concentration in supernatant in series [1] (substrate 10006, 2 h) is 12 µM; in [1] (substrate 10006, 4 h), 21 µM; in series [1] (substrate 10006, 6 h), 30 µM; in [2] (substrate 10006, 2 h), 2 µM; in [2] (substrate 10006, 4 h), 2 µM; in series [2] (substrate 10006, 6 h) it was 2 µM. The concentration in supernatant in the series with S. lividans pCAO200 [3] (2 h) came to 4 µM; in the series with S. lividans pCAO200 [3] (4 h), 1 µM; in the series on S. lividans pCAO200 [3] (6 h) it was 1 µM.

Turning to `COc1nc(C)nc(=NC(=O)NS(=O)(=O)c2ccccc2C(=O)O)[nH]1` [compound 10008, N-[(4-methoxy-6-methyl-1,3,5-triazinyl)aminocarbonyl]-2-carboxybenzenesulfonamide], the concentration in supernatant in series [1] (substrate 10006, 2 h) was found to be 18 µM; in [1] (substrate 10006, 4 h), 38 µM; in [1] (substrate 10006, 6 h), 55 µM; in series [2] (substrate 10006, 2 h), 1 µM; in series [2] (substrate 10006, 4 h) it was 1 µM; in [2] (substrate 10006, 6 h), 1 µM. Moreover, the concentration in supernatant in the series on S. lividans pCAO200 [3] (2 h), in the series with S. lividans pCAO200 [3] (4 h) and in the series on S. lividans pCAO200 [3] (6 h) was 0 µM each time.

As for `COC(=O)c1ccccc1S(=O)(=O)NC(=O)Nc1nc(CO)nc(OC)n1` [compound 10009, N-[(4-methoxy-6-hydroxymethyl-1,3,5-triazin-yl)aminocarbony1]-2-methoxycarbonylbenzenesulfonamide], the concentration in supernatant in [1] (substrate 10006, 2 h) was 15 µM; in series [1] (substrate 10006, 4 h) it was 33 µM; in [1] (substrate 10006, 6 h) it was 49 µM; in [2] (substrate 10006, 2 h), 0 µM; in series [2] (substrate 10006, 4 h) it was 1 µM; in series [2] (substrate 10006, 6 h) it was 1 µM. Further, the concentration in supernatant with S. lividans pCAO200 [3] (2 h), with S. lividans pCAO200 [3] (4 h) and in the series with S. lividans pCAO200 [3] (6 h) was 0 µM in each case.

With `COC(=O)c1ccccc1S(=O)(=O)NC(=O)Nc1nc(C)cc(CO)n1` [compound 10011, N-[(4-hydroxymethyl-6-methyl-pyrimidin-2-yl)aminocarbonyl]-2-methoxycarbonylbenzenesulfonamide], the concentration in supernatant in series [1] (substrate 10010, 2 h) came to 34 µM; in [1] (substrate 10010, 4 h), 37 µM; in series [1] (substrate 10010, 6 h), 27 µM; in series [2] (substrate 10010, 2 h), 4 µM; in [2] (substrate 10010, 4 h) it was 7 µM; in series [2] (substrate 10010, 6 h), 11 µM. The concentration in supernatant in the series on S. lividans pCAO200 [4] (2 h) is 1 µM; in the series on S. lividans pCAO200 [4] (4 h), 2 µM; with S. lividans pCAO200 [4] (6 h), 3 µM; in series [5] (2 h), 1 µM; in series [5] (4 h) it was 5 µM; in [5] (6 h), 14 µM.

For `COC(=O)C1Cc2c(c(Cl)cc(F)c2N2C(=O)C3=C(CCCC3)C2=O)O1` (stereo not shown) [compound 10020, 7-chloro-5-fluoro-4-(2,3,4,5,6,7-hexahydro-1,3-dioxo-1H-isoindol-2-yl)-2,3-dihydro-2-benzofurancarboxylic acid, methyl ester], the “Percent Conversion” value in series [6] was found to be 19%; in [7] it was 89%; in series [8], 7%. In [7], the “metabolism by bacteria containing constitutively expressed P450SU2” value is on record as “metabolized”.

Regarding `C[n+]1cccnc1[O-]` [compound 10022, 1-methyl-2(1H)-pyrimidinone], the “Percent Conversion” value is listed as 42% in [6], 96% in [7] and 0% in series [8]. The “metabolism by bacteria containing constitutively expressed P450SU2” value in [7] is given as “metabolized”.

For `CCN1Cc2cccc(S(=O)(=O)NC(=O)Nc3nc(OC)cc(OC)n3)c2S1(=O)=O` [compound 10024, N-[(4,6-dimethoxypyrimidin-2-yl)aminocarbonyl]-2-ethyl-2,3-dihydro-1,2-benzisothiazole-7-sulfonamide-1,1-dioxide], the “metabolism by P450SU1 to phytotoxic 10014” value (shortened to “metabolism by P450SU1”) in the series on S. griseolus ATCC11796 is “metabolized”.

In the case of `COc1cc(OC)nc(NC(=O)NS(=O)(=O)c2cccc3c2S(=O)(=O)N(Cc2ccccc2)C3)n1` [compound 10025, N-[(4,6-dimethoxypyrimidin-2-yl)aminocarbonyl]2,3-dihydro-2-(phenylmethyl)-1,2-benzisothiazole-7-sulfonamide-1,1-dioxide], the “metabolism by P450SU1” value with S. griseolus ATCC11796 is “metabolized”.

Regarding `COc1cc(OC)nc(NC(=O)NS(=O)(=O)c2cccc3c2S(=O)(=O)N(CCF)C3)n1` [compound 10026, N-[(4,6-dimethoxypyrimidin-2-yl)aminocarbonyl]-2-(2-fluoroethy1)-2,3-dihydro-1,2-benzisothiazole-7-sul fonamide-1,1-dioxide], the “metabolism by P450SU1” value in the series with S. griseolus ATCC11796 is listed as “metabolized”.

Consider `CCCN1Cc2cccc(S(=O)(=O)NC(=O)Nc3nc(OC)cc(OC)n3)c2S1(=O)=O` [compound 10027, N-[(4,6-dimethoxypyrimidin-2-yl)aminocarbonyl]-2,3-dihydro-2-propyl-1,2-benzisothiazole-7-sulfonamide-1,1-dioxide], for which the “metabolism by P450SU1” value with S. griseolus ATCC11796 is “metabolized”.

As to `Cc1cc(C)n2nc(S(=O)(=O)Nc3c(C)cccc3Cl)nc2n1` [compound 10033, N-(2-chloro-6-methylphenyl)-5,7-dimethyl-1,2,4-triazolo-1,5A-pyrimidine-2-sulfonamide], in series [9], the “Percent Conversion” value stood at 88% and the “metabolism by bacteria containing constitutively expressed P450SU1” value was “metabolized”.

As for `Cc1cc(C)nc(S(=O)(=O)Nc2c(Cl)cccc2Cl)n1` [compound 10036, N-(2,6-dichlorophenyl)-4,6-dimethyl-2-pyrimidinesulfonamide], in series [9], the “Percent Conversion” value is 100% and the “metabolism by bacteria containing constitutively expressed P450SU1” value was “metabolized”.
